As usually defined, the MIC is the least concentration at which growth counts as inhibited. In general, IC50 refers to the concentration needed to halve the response being measured.

Converted amounts (≈) assume the structure as drawn. The source made the active and inactive calls. No cut-off for these calls is given here.

These results are taken from ChEMBL document CHEMBL1156380, “Inhibition of Mycobacterium tuberculosis growth by saringosterol from Lessonia nigrescens” (J Nat Prod, 2001).

For assay [1], the system named is Mycobacterium tuberculosis. In words: Antitubercular activity against Mycobacterium tuberculosis H37Rv ATCC 27294 by BACTEC 460 radiometric assay. In kind it is functional.
Assay [2] concerns Vero. In words: Cytotoxicity against african green monkey Vero cells by celltiter 96 aqueous nonradioactive assay. Type of assay: cell-based. The following applies: Chlorocebus sabaeus.

The molecule `C=C[C@](O)(CC[C@@H](C)[C@H]1CC[C@H]2[C@@H]3CC=C4C[C@@H](O)CC[C@]4(C)[C@H]3CC[C@]12C)C(C)C` registered an MIC in assay [1] of 1 µg/mL (≈ 2.33 µM).
The same measure, in the same setting: the result for `C=C[C@@](O)(CC[C@@H](C)[C@H]1CC[C@H]2[C@@H]3CC=C4C[C@@H](O)CC[C@]4(C)[C@H]3CC[C@]12C)C(C)C` reads 0.125 µg/mL (≈ 0.292 µM).
Regarding `C/C=C(\CC[C@@H](C)[C@H]1CC[C@H]2[C@@H]3CC=C4C[C@@H](O)CC[C@]4(C)[C@H]3CC[C@]12C)C(C)C`, the MIC entry in assay [1] was “inactive”.
The same measure, in the same setting: the result for `CO[C@H]1/C=C/O[C@@]2(C)Oc3c(C)c(O)c4c(O)c(c(/C=N/N5CCN(C)CC5)c(O)c4c3C2=O)NC(=O)/C(C)=C\C=C\[C@H](C)[C@H](O)[C@@H](C)[C@@H](O)[C@@H](C)[C@H](OC(C)=O)[C@@H]1C` [RIFAMPIN] reads 0.25 µg/mL (≈ 0.304 µM).
For `C=CC(O)(CC[C@@H](C)[C@H]1CC[C@H]2[C@@H]3CC=C4C[C@@H](O)CC[C@]4(C)[C@H]3CC[C@]12C)C(C)C` (stereo partly specified) [SARINGOSTEROL], in assay [1], 0.25 µg/mL (≈ 0.583 µM) was the least that counted as inhibitory (MIC). Further, the 50% inhibitory concentration (IC50) in assay [2] is greater than 128 µg/mL.
